Test results as given in patent US20250120922A1, “COMPOSITION FOR IMPROVING COW REPRODUCTIVE ABILITY” (SOLOMON CO., LTD., priority 2022, published 2025).
Where “and” joins values, the source holds several entries; their conditions need not be identical. Identical values can stand only once.

Test system: cows after calving
Assay: Effect of improving cow reproductive ability (first return to estrus after calving, composition mounted on the leash)
Type: in vivo
Conditions: for First return to estrus day after calving: leash mounting type, 3 heads
Description: The mixture was poured into a wax tray and completely hardened to prepare a composition for improving cow reproductive ability.
By using the composition prepared in Example 2, the effect of improving the cow reproductive ability was confirmed after being mounted on the leash of cows after calving. The first return to estrus after calving was generally known to be 60 to 90 days, and in the experiment, confirmed to be average 84.20±6.64 in the case of cow used as a control group.

SMILES: Cc1ccc(O)cc1 [p-cresol]
- First return to estrus day after calving (1% p-cresol in paraffin wax block): 46 ± 4 days
- First return to estrus day after calving (5% p-cresol in paraffin wax block): 28 days and 28 ± 4 days
- Return of estrus earlier than the earliest normal return time of estrus (approximately 45 days after calving) (5% p-cresol pheromone block): about 17 days
